# Experiments:
# human CYP11B2 enzyme = biological target: T1, human CYP11B2 enzyme (Homo sapiens, UniProt P19099); assay: Enzyme inhibition activity assay in G402 cells stably expressing human CYP11B2 (aldosterone production from 11-DOC, LC/MS); format: cell-based; settings: 1 µM 11-DOC, 16 hours, aldosterone detected
# T1 construct: the ORF of human CYP11B1 or CYP11B2 were transfected into G402 cells; expressed in transfected cells
# T1 sequence (P19099 25-503): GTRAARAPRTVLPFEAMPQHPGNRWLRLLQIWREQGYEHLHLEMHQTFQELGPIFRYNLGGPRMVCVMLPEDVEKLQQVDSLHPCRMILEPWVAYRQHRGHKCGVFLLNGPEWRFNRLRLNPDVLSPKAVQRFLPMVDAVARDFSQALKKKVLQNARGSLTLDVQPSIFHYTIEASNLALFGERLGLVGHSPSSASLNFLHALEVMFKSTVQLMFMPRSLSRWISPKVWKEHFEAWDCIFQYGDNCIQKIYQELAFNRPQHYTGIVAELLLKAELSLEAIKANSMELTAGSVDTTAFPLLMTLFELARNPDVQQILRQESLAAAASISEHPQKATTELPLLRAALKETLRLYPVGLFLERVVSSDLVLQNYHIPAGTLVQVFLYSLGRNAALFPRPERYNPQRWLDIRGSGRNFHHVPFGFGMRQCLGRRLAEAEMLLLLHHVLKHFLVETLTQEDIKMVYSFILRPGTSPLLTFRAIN
# How it was run: (§1)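 G402 cells stably expressing human CYP11B2 or CYP11B1, preincubated 1 h with inhibitor in DMEM/F12 plus 2.5% charcoal-stripped FCS, then 16 h with 1 µM 11-DOC or 1 µM 11-DC. Aldosterone or cortisol quantified by LC/MS; IC50 from four-parameter logistic fit versus uninhibited control.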
# human CYP11B1 enzyme = biological target: T2, human CYP11B1 enzyme (Homo sapiens, UniProt P15538); assay: Enzyme inhibition activity assay in G402 cells stably expressing human CYP11B1 (cortisol production from 11-DC, LC/MS); format: cell-based; settings: 1 µM 11-DC, 16 hours, cortisol detected
# T2 construct: the ORF of human CYP11B1 or CYP11B2 were transfected into G402 cells; expressed in transfected cells
# T2 sequence (P15538 25-503): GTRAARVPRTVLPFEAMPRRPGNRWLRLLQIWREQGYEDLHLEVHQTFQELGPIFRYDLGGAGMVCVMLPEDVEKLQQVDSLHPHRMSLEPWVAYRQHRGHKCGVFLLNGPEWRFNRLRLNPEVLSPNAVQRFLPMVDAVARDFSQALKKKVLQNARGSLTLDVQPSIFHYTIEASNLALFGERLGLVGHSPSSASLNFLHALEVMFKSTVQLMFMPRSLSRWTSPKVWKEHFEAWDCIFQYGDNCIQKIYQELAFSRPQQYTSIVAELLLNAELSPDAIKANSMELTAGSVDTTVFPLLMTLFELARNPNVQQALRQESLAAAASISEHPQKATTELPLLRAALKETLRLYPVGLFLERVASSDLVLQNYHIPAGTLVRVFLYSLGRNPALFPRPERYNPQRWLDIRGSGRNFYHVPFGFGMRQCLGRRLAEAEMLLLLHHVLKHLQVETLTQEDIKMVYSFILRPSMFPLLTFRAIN
# How it was run: as §1
# [1] = Pharmacokinetic determination in monkeys after gavage administration (P.O.); format: in vivo, Cynomolgus monkeys (Macaca fascicularis); settings: cynomolgus monkey, po, 1 mg/kg, plasma
# Method: (§2) Cynomolgus monkeys (Macaca fascicularis) were used as test animals to study the pharmacokinetic behavior of the compounds of the present disclosure in plasma following gavage administration (P.O.). Plasma samples were collected at specific time points, compound concentrations in plasma were detected by LC-MS/MS, and pharmacokinetic parameters were calculated to reflect the pharmacokinetics in cynomolgus monkeys.
# Cynomolgus monkeys, male, Ankaiyibo (Zhanjiang) Biotechnology Co., Ltd.
# After administration to cynomolgus monkeys, venous blood samples of 0.3 mL were collected at 0.25, 0.5, 1, 2, 4, 8, and 24 hours and placed in EDTA-K2 test tubes. Plasma was separated by centrifugation at 4 °C, 4000 g for 5 minutes and stored at -80 °C.
# • 1) 50 µL of plasma sample was precipitated by adding 200 µL of acetonitrile, vortex mixed, and centrifuged for 15 minutes. • 2) The processed supernatant was diluted with water and analyzed by LC/MS/MS to determine the concentration of the test compound.
# (§3) Pharmacokinetic parameters were calculated using WinNonlin 8.3. Cmax represents the maximum plasma concentration, T1/2 represents the terminal elimination half-life, MRTInf represents the mean residence time, and AUC represents the area under the plasma concentration-time curve. Table 6 Pharmacokinetic Parameters of the Compounds of the Present Disclosure in Monkeys
# in vivo = settings: male, Sprague-Dawley, rat, plasma, po, 10 mg/kg
# Method: Mice and rats were used as test animals to study the pharmacokinetic behavior of the compounds of the present disclosure in plasma following gavage administration (P.O.). Plasma samples were collected at specific time points, compound concentrations in plasma were detected by LC-MS/MS, and pharmacokinetic parameters were calculated to evaluate the pharmacokinetics.
# Pharmacokinetic parameters were calculated using WinNonlin 8.3. […] Cmax represents the maximum plasma concentration, T1/2 represents the terminal elimination half-life, MRTInf represents the mean residence time, and AUC represents the area under the plasma concentration-time curve.
# [2] = Pharmacokinetic determination in mice after gavage administration (P.O.); format: in vivo; settings: male, CD-1, mouse, po, 10 mg/kg, plasma
# Method: as §2, with “Mice and rats” for “Cynomolgus monkeys (Macaca fascicularis)”, “evaluate” for “reflect”, “pharmacokinetics.” for “pharmacokinetics in cynomolgus monkeys.”
# • Mice, CD-1, male, Zhejiang Vital River Laboratory Animal Technology Co., Ltd. • Rats, Sprague-Dawley, male, Zhejiang Vital River Laboratory Animal Technology Co., Ltd., Shanghai Jihui Experimental Animal Breeding Co., Ltd.
# After administration to mice and rats, venous blood samples of 0.03 mL and 0.2 mL, respectively, were collected at 0.0833 (IV), 0.25, 0.5, 1, 2, 4, 8, and 24 hours and placed in EDTA-K2 test tubes. Plasma was separated by centrifugation at 4 °C, 4000 g for 5 minutes and stored at -80 °C.
# • 1) 10 µL of plasma sample was precipitated by adding 200 µL of acetonitrile, vortex mixed, and centrifuged for 15 minutes. • 2) The processed supernatant was diluted with water and analyzed by LC/MS/MS to determine the concentration of the test compound.
# as §3, with “8.3. The pharmacokinetic parameters for mice P.O. are shown in Table 4, and for rats P.O. in Table 5.” for “8.3.”, “4” for “6”, “Mice” for “Monkeys”
# [3] = added to existing treatment; within 3 months of treatment; cited from earlier work
compound,measurement,setting,value
CCC(=O)N[C@@H]1CCOc2c(-c3ccc4c(c3)cc(C#N)n4C)cncc21 [Compound A10-P2],IC50,human CYP11B2 enzyme,1.8 nM
same,IC50,human CYP11B1 enzyme,316 nM
same,Cmax,[1]; in vivo,3.28 µM
same,MRT inf,[1]; in vivo,9.14 h
same,half-life,[1]; in vivo,8.48 h
same,AUC(0-t) at 24 h,"[1]; in vivo, read-out: AUC0-24",29.1 µM·h
"CCC(=O)N[C@@H]1CCCc2c(-c3ccc4c(c3)CCC(=O)N4C)cncc21 [Control Compound, reference compound]",Cmax,[1]; male,0.834 µM
same,AUC(0-t),"[1]; male, read-out: AUC0-24",6 µM·h
same,AUC(0-t),in vivo,109 µM·h
same,Cmax,in vivo,11.4 µM
same,MRT inf,in vivo,6.41 h
same,half-life,in vivo,4.31 h
same,Cmax,[2],12.2 µM
same,MRT inf,[2],3.59 h
same,half-life,[2],1.86 h
same,AUC(0-t),[2]; read-out: AUC0-24,57.3 µM·h
CC(=O)S[C@@H]1CC2=CC(=O)CC[C@]2(C)[C@H]2CC[C@@]3(C)[C@@H](CC[C@@]34CCC(=O)O4)[C@H]12 [spironolactone],patients with resistant hypertension achieving effective control of blood pressure (systolic blood pressure <135 mm Hg),[3],60%
